These results are taken from ChEMBL document CHEMBL3525962, “Novel bioactivation mechanism of reactive metabolite formation from phenyl methyl-isoxazoles” (Drug Metab Dispos, 2012).

The series has as its system Liver microsome. As to the kind of experiment: Drug metabolism in human liver microsomes assessed as oxidative metabolite formation at 10 uM by LC-MS analysis in presence of NADPH. The format is ADME.

On to `Cc1onc(-c2ccccc2)c1NC(=O)NCc1ccc(Cl)cc1Cl`, for which the Drug metabolism result was “metabolite_detected”.
